According to US11040028B2, “Penicinotam derivative, preparation method and use thereof” (OCEAN UNIVERSITY OF CHINA, priority 2017, dated 2021):

Experiments:
Type in all cases: cell-based
[1] = test system: mouse macrophages (RAW264.7); experiment: Lipopolysaccharide-induced NO secretion in macrophages (Griess); settings: Mus musculus, RAW264.7, 24 h, RAW264.7, LPS 1 μg/ml, a/b isomers given as first/second symbol, read-out: IC50 (μM), inhibition of lipopolysaccharide-induced NO secretion in macrophages
Outline: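 Indomethacin and resveratrol served as positive controls while compounds were tested across concentrations on LPS-stimulated (1 μg/ml, 24 h) RAW264.7 cells. NO output was quantified colorimetrically (Griess, 548 nm).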

[2] = test system: cardiac fibroblast RAT-iCell-C002; experiment: Anti-fibrosis activity test: inhibition of proliferation of cardiac fibroblast RAT-iCell-C002 (CCK-8); settings: Cardiac fibroblast, 48 h
Outline: (§1)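 Proliferation inhibition is measured by CCK-8 after cells plated at 2×10^4 cells/mL attach overnight (24 h) and then receive test compounds for 48 h at several concentrations, each in triplicate. Optical density at 450 nm gives IR = (1−Ai/Ao)×100%, from which IC50 is computed.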

[3] = test system: human hepatic stellate cells LX-2; experiment: Anti-fibrosis activity test: inhibition of proliferation of human hepatic stellate cells LX-2 (CCK-8); settings: Homo sapiens, 48 h
Outline: as §1

NF-κB = experiment: Immunological activity test: inhibition of NF-κB activity; settings: initial concentration of 30 μM; a/b isomers given as first/second symbol; read-out: IC50 (μM), inhibitory activity against NF-κB
Outline: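 IC50 values were derived after initial screening of compounds at 30 μM for NF-κB inhibitory activity, with parthenolide serving as the positive control.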

BHK-21 cells = experiment: Anti-fibrosis activity test: inhibition of BHK-21 cell proliferation (CCK-8); settings: Mesocricetus auratus, BHK-21, 48 h
Outline: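 Each concentration was tested in triplicate on adhered BHK-21 cells for 48 h, with pirfenidone as reference. A 2 h CCK-8 incubation preceded absorbance reading at 450 nm, and IC50 was obtained from percent inhibition versus blank.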

[4] = test system: human dermal fibroblasts CCC-ESF-1; experiment: Anti-fibrosis activity test: inhibition of proliferation of human dermal fibroblasts CCC-ESF-1 (CCK-8); settings: Fibroblast
Outline: as §1

[5] = test system: human fibrosarcoma cells HT-1080; experiment: Anti-fibrosis activity test: inhibition of proliferation of human fibrosarcoma cells HT-1080 (CCK-8); settings: Homo sapiens, HT-1080, 48 h
Outline: as §1

[6] = test system: human lung fibroblasts HFL1; experiment: Anti-fibrosis activity test: inhibition of proliferation of human lung fibroblasts HFL1 (CCK-8); settings: Homo sapiens, HFL1, 48 h
Outline: as §1

[7] = test system: human embryonic lung fibroblast IMR-90; experiment: Anti-fibrosis activity test: inhibition of proliferation of human embryonic lung fibroblast IMR-90 (CCK-8)
Outline: as §1

[8] = Homo sapiens, CCC-ESF-1 cells, 48 h, CCK-8
[9] = Homo sapiens, IMR-90 cells, 48 h, CCK-8
[10] = cardiac fibroblast RAT-iCell-C002, CCK-8, 48 hours
[11] = human hepatic stellate cells LX-2, CCK-8, 48 hours
[12] = CCK-8, 48 hours after administration
[13] = human dermal fibroblasts CCC-ESF-1, CCK-8, 48 hours
[14] = human fibrosarcoma cells HT-1080, CCK-8, 48 hours
[15] = human lung fibroblasts HFL1, CCK-8, 48 hours
[16] = human embryonic lung fibroblast IMR-90, CCK-8, 48 hours

Measured: IC50

O=C1c2c(nc3ccccc3c2OCCCCN2CCCCC2)-c2cccn21 [Compound 667b, 9-(4-(piperidin-1-yl)butoxy)-10H-pyrrolizino[1,2-b]quinolin-10-one]
1 to 10 µM: [1] | NF-κB
0.05 to 5 mM: [2]; RAT-iCell-C002 cells, CCK-8 | [3]; LX-2, 48 h, LX-2 cells, CCK-8 | BHK-21 cells; 48 h, CCK-8 | [4]; [8] | [5]; HT-1080 cells, 48 h, CCK-8 | [6]; HFL1 cells, 48 h, CCK-8 | [7]; [9]

CC(C)(C)c1ccc(Cn2c3c(c(=O)c4ccccc42)C(=O)n2cccc2-3)cc1 [Compound 605a, 4-(4-(Tert-butyl)benzyl)-9H-pyrrolizino[1,2-b]quinoline-9,10(4H)-dione]
1 to 10 µM: [1] | NF-κB
0.05 to 5 mM: [2]; [10] | [3]; [11] | BHK-21 cells; [12] | [4]; [13] | [5]; [14] | [6]; [15] | [7]; [16]

O=C1c2c(n(Cc3ccc(Br)cc3F)c3ccccc3c2=O)-c2cccn21 [Compound 606a, 4-(4-Bromo-2-fluorobenzyl)-9H-pyrrolizino[1,2-b]quinoline-9,10(4H)-dione]
0.1 to 1 µM: NF-κB
0.05 to 5 mM: [2]; [10] | [3]; [11] | [4]; [13] | [6]; [15] | [7]; [16]
< 0.05 mM: BHK-21 cells; [12] | [5]; [14]
1 to 10 µM: [1]

O=C1c2c(nc3cccc(Cl)c3c2O)-c2cccn21 [Compound 464b, 8-chloro-9-hydroxy-10H-pyrrolizino[1,2-b]quinolin-10-one]
< 0.05 mM: [6]; [15]
0.05 to 5 mM: [2]; [10] | [3]; [11] | BHK-21 cells; [12] | [4]; [13] | [5]; [14] | [7]; [16]
1 to 10 µM: [1] | NF-κB

O=C1c2c(n(Cc3ccc(Cl)cc3)c3cc(F)ccc3c2=O)-c2cccn21 [Compound 496a, 4-(4-Chlorobenzyl)-6-fluoro-9H-pyrrolizino[1,2-b]quinoline-9,10(4H)-dione]
0.05 to 5 mM: [2]; [10] | [3]; [11] | BHK-21 cells; [12] | [4]; [13] | [5]; [14] | [6]; [15] | [7]; [16]
10 to 50 µM: [1] | NF-κB

O=C(O)c1ccccc1-c1ccc(COc2c3c(nc4ccccc24)-c2cccn2C3=O)cc1 [Compound 81b, 4′-(((10-oxo-10H-pyrrolizino[1,2-b]quinolin-9-yl)oxy)methyl)-[1,1′-biphenyl]-2-carboxylic acid]
0.05 to 5 mM: [2]; [10] | BHK-21 cells; [12] | [4]; [13] | [5]; [14] | [6]; [15] | [7]; [16]
1 to 10 µM: [1] | NF-κB
< 0.05 mM: [3]; [11]

O=C1c2c(n(Cc3ccc(Cl)c(Cl)c3)c3ccccc3c2=O)-c2cccn21 [Compound 613a, 4-(3,4-Dichlorobenzyl)-9H-pyrrolizino[1,2-b]quinoline-9,10(4H)-dione]
0.05 to 5 mM: [2]; [10] | [3]; [11] | [4]; [13] | [5]; [14] | [6]; [15] | [7]; [16]
< 0.05 mM: BHK-21 cells; [12]
10 to 50 µM: [1]
1 to 10 µM: NF-κB

O=C1c2c(n(CCCN3CCOCC3)c3ccccc3c2=O)-c2cccn21 [Compound 663a, 4-(3-Morpholinopropyl)-9H-pyrrolizino[1,2-b]quinoline-9,10(4H)-dione]
1 to 10 µM: NF-κB
0.1 to 1 µM: [1]
0.05 to 5 mM: [2]; [10] | [3]; [11] | [4]; [13] | [5]; [14] | [6]; [15] | [7]; [16]
< 0.05 mM: BHK-21 cells; [12]

CCCOCCn1c2c(c(=O)c3ccccc31)C(=O)n1cccc1-2 [Compound 671a, 4-(2-Propoxyethyl)-9H-pyrrolizino[1,2-b]quinoline-9,10(4H)-dione]
0.05 to 5 mM: [2]; RAT-iCell-C002 cells, CCK-8 | [3]; LX-2, 48 h, LX-2 cells, CCK-8 | BHK-21 cells; 48 h, CCK-8 | [4]; [8] | [5]; HT-1080 cells, 48 h, CCK-8 | [6]; HFL1 cells, 48 h, CCK-8 | [7]; [9]
1 to 10 µM: [1] | NF-κB

O=C1c2c(nc3c(Cl)cccc3c2O)-c2cccn21 [Compound 443b, 5-chloro-9-hydroxy-10H-pyrrolizino[1,2-b]quinolin-10-one]
1 to 10 µM: [1] | NF-κB
0.05 to 5 mM: [2]; [10] | [3]; [11] | BHK-21 cells; [12] | [4]; [13] | [5]; [14] | [6]; [15] | [7]; [16]

N#Cc1ccc(F)cc1Cn1c2c(c(=O)c3ccccc31)C(=O)n1cccc1-2 [Compound 616a, 2-((9,10-Dioxo-9H-pyrrolizino[1,2-b]quinolin-4(10H)-yl)methyl)-4-fluorobenzonitrile]
0.1 to 1 µM: NF-κB
10 to 50 µM: [1]
0.05 to 5 mM: [2]; [10] | [3]; [11] | BHK-21 cells; [12] | [4]; [13] | [5]; [14] | [6]; [15] | [7]; [16]

N#Cc1cccc(Cn2c3c(c(=O)c4ccccc42)C(=O)n2cccc2-3)c1 [Compound 597a, 3-((9,10-Dioxo-9H-pyrrolizino[1,2-b]quinolin-4(10H)-yl)methyl)benzonitrile]
0.05 to 5 mM: [2]; [10] | [3]; [11] | BHK-21 cells; [12] | [4]; [13] | [5]; [14] | [6]; [15] | [7]; [16]
1 to 10 µM: [1] | NF-κB

O=C1c2c(n(Cc3ccc(F)cc3)c3cccc(F)c3c2=O)-c2cccn21 [Compound 468a, 8-Fluoro-4-(4-fluorobenzyl)-9H-pyrrolizino[1,2-b]quinoline-9,10(4H)-dione]
< 0.05 mM: BHK-21 cells; [12]
0.05 to 5 mM: [2]; [10] | [3]; [11] | [4]; [13] | [5]; [14] | [6]; [15] | [7]; [16]
0.1 to 1 µM: NF-κB
1 to 10 µM: [1]

O=C1c2c(n(Cc3ccc([N+](=O)[O-])cc3)c3ccccc3c2=O)-c2cccn21 [Compound 593a, 4-(4-Nitrobenzyl)-9H-pyrrolizino[1,2-b]quinoline-9,10(4H)-dione]
0.05 to 5 mM: [2]; [10] | [3]; [11] | BHK-21 cells; [12] | [4]; [13] | [5]; [14] | [6]; [15] | [7]; [16]
0.1 to 1 µM: NF-κB
1 to 10 µM: [1]

Cc1ccccc1COc1c2c(nc3ccccc13)-c1cccn1C2=O [Compound 574b, 9-((2-methylbenzyl)oxy)-10H-pyrrolizino[1,2-b]quinolin-10-one]
0.05 to 5 mM: [2]; [10] | [3]; [11] | BHK-21 cells; [12] | [4]; [13] | [5]; [14] | [6]; [15] | [7]; [16]
10 to 50 µM: [1]
1 to 10 µM: NF-κB

O=C1c2c(nc3ccccc3c2OCc2ccc(C(F)(F)F)cc2)-c2cccn21 [Compound 591b, 9-((4-(trifluoromethyl)benzyl)oxy)-10H-pyrrolizino[1,2-b]quinolin-10-one]
0.1 to 1 µM: NF-κB
1 to 10 µM: [1]
0.05 to 5 mM: [2]; [10] | [3]; [11] | BHK-21 cells; [12] | [4]; [13] | [5]; [14] | [6]; [15] | [7]; [16]

O=C1c2c(n(CCCO)c3ccccc3c2=O)-c2cccn21 [Compound 16a, 4-(3-Hydroxypropyl)-9H-pyrrolizino[1,2-b]quinoline-9,10(4H)-dione]
0.05 to 5 mM: [2]; [10] | [3]; [11] | BHK-21 cells; [12] | [4]; [13] | [5]; [14] | [6]; [15] | [7]; [16]
1 to 10 µM: [1] | NF-κB

O=C1c2c([nH]c3cc(O)ccc3c2=O)-c2cccn21 [Compound 524a, 6-Hydroxy-9H-pyrrolizino[1,2-b]quinoline-9,10(4H)-dione]
0.05 to 5 mM: [2]; [10] | [3]; [11] | BHK-21 cells; [12] | [4]; [13] | [5]; [14] | [6]; [15] | [7]; [16]
0.1 to 1 µM: [1] | NF-κB

C=CCOc1c2c(nc3ccccc13)-c1cccn1C2=O [Compound 6b, 9-(allyloxy)-10H-pyrrolizino[1,2-b]quinolin-10-one]
0.05 to 5 mM: [2]; [10] | [3]; [11] | BHK-21 cells; [12] | [5]; [14] | [6]; [15] | [7]; [16]
1 to 10 µM: [1] | NF-κB
5 to 20 mM: [4]; [13]
